According to PubChem BioAssay (NCI):
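Five concentrations, 48 hours, 96-well plates. Abbreviation: GI50, concentration required for 50% inhibition of growth. TGI marks complete inhibition of growth.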

Legend:
Assay in all cases: NCI tumour cell line growth inhibition, 48 h
[1] = tested on: OVCAR-5 ovarian
[2] = tested on: KM12 colon
[3] = tested on: UO-31 renal
[4] = tested on: SNB-19 CNS
[5] = tested on: 786-0 renal
[6] = tested on: SN12C renal
[7] = tested on: LOX IMVI melanoma
[8] = tested on: NCI-H460 lung
[9] = tested on: RXF 393 renal
[10] = tested on: CCRF-CEM leukemia
[11] = tested on: MCF7 breast
[12] = tested on: SR leukemia
[13] = tested on: DU-145 prostate
[14] = tested on: T-47D breast
[15] = tested on: SW-620 colon
[16] = tested on: NCI-H522 lung
[17] = tested on: HT29 colon
[18] = tested on: SK-MEL-2 melanoma
[19] = tested on: HCT-15 colon
[20] = tested on: HOP-62 NSCLC
[21] = tested on: ACHN renal
[22] = tested on: HOP-92 NSCLC
[23] = tested on: SK-OV-3 ovarian
[24] = tested on: SF-295 CNS
[25] = tested on: CAKI-1 renal
[26] = tested on: A498 renal
[27] = tested on: K-562 leukemia
[28] = tested on: NCI-H226 lung
[29] = tested on: NCI-H23 lung
[30] = tested on: UACC-257 melanoma
[31] = tested on: M14 melanoma
[32] = tested on: TK-10 renal
[33] = tested on: IGROV1 ovarian
[34] = tested on: EKVX NSCLC
[35] = tested on: HCC-2998 colon
[36] = tested on: MDA-MB-231 breast
[37] = tested on: OVCAR-4 ovarian
[38] = tested on: SF-539 CNS
[39] = tested on: SF-268 CNS
[40] = tested on: BT-549 breast
[41] = tested on: HS 578T breast
[42] = tested on: NCI/ADR-RES ovarian
[43] = tested on: SNB-75 CNS
[44] = tested on: SK-MEL-28 melanoma
[45] = tested on: A549 NSCLC
[46] = tested on: COLO 205 colon
[47] = tested on: OVCAR-8 ovarian
[48] = tested on: RPMI-8226 leukemia
[49] = tested on: SK-MEL-5 melanoma
[50] = tested on: HL-60(TB) leukemia
[51] = tested on: UACC-62 melanoma
[52] = tested on: U251 CNS
[53] = tested on: PC-3 prostate
[54] = tested on: MALME-3M melanoma
[55] = tested on: MOLT-4 leukemia
[56] = tested on: MDA-MB-435
[57] = tested on: HCT-116 colon

Cn1ccnc1C(=O)/C=C/c1ccc(CNC(=O)c2ccc(S(F)(F)(F)(F)F)cc2)cc1
GI50 [1]: 4.48 µM
TGI [1]: 11.6 µM
GI50 [2]: 2.8 µM
TGI [2]: 6.02 µM
GI50 [3]: 3.36 µM
TGI [3]: 6.59 µM
GI50 [4]: 3.21 µM
TGI [4]: 7.07 µM
GI50 [5]: 4.09 µM
TGI [5]: 8.27 µM
GI50 [6]: 5.74 µM
TGI [6]: 18.6 µM
GI50 [7]: 1.12 µM
TGI [7]: 4.2 µM
GI50 [8]: 3.34 µM
TGI [8]: 9.53 µM
GI50 [9]: 3.53 µM
TGI [9]: 7.41 µM
GI50 [10]: 3.25 µM
TGI [10]: > 25 µM
GI50 [11]: 0.868 µM
TGI [11]: 4.79 µM
GI50 [12]: 0.854 µM
TGI [12]: > 25 µM
GI50 [13]: 3.26 µM
TGI [13]: 6.6 µM
GI50 [14]: 4.32 µM
TGI [14]: 18.6 µM
GI50 [15]: 1.66 µM
TGI [15]: 5.85 µM
GI50 [16]: 4.11 µM
TGI [16]: 8.23 µM
GI50 [17]: 3.9 µM
TGI [17]: 8.68 µM
GI50 [18]: 4.24 µM
TGI [18]: 9.22 µM
GI50 [19]: 1.36 µM
TGI [19]: 6.49 µM
GI50 [20]: 4.31 µM
TGI [20]: 9.55 µM
GI50 [21]: 4.23 µM
TGI [21]: 7.74 µM
GI50 [22]: 4.38 µM
TGI [22]: 12.1 µM
GI50 [23]: 7.7 µM
TGI [23]: > 25 µM
GI50 [24]: 3.6 µM
TGI [24]: 7.15 µM
GI50 [25]: 3.26 µM
TGI [25]: 6.9 µM
GI50 [26]: 3.41 µM
TGI [26]: 6.84 µM
GI50 [27]: 1.05 µM
TGI [27]: > 25 µM
GI50 [28]: 5.84 µM
TGI [28]: > 25 µM
GI50 [29]: 3.02 µM
TGI [29]: 7.69 µM
GI50 [30]: 5.73 µM
TGI [30]: 15.2 µM
GI50 [31]: 4.58 µM
TGI [31]: 9.4 µM
GI50 [32]: 4.38 µM
TGI [32]: 9.15 µM
GI50 [33]: 3.76 µM
TGI [33]: 10.6 µM
GI50 [34]: 4.38 µM
TGI [34]: 10.3 µM
GI50 [35]: 3.7 µM
TGI [35]: 7.17 µM
GI50 [36]: 5.57 µM
TGI [36]: 18.9 µM
GI50 [37]: 3.64 µM
TGI [37]: 11.3 µM
GI50 [38]: 3.37 µM
TGI [38]: 7.04 µM
GI50 [39]: 3.44 µM
TGI [39]: 7.52 µM
GI50 [40]: 3.49 µM
TGI [40]: 7.63 µM
GI50 [41]: 5.45 µM
TGI [41]: 21.4 µM
GI50 [42]: 5.71 µM
TGI [42]: > 25 µM
GI50 [43]: 2.12 µM
TGI [43]: 5.41 µM
GI50 [44]: 5.2 µM
TGI [44]: 11.4 µM
GI50 [45]: 5.92 µM
TGI [45]: > 25 µM
GI50 [46]: 4.22 µM
TGI [46]: 9.07 µM
GI50 [47]: 6.54 µM
TGI [47]: > 25 µM
GI50 [48]: 1.3 µM
TGI [48]: 8.28 µM
GI50 [49]: 4.57 µM
TGI [49]: 8.52 µM
GI50 [50]: 4.87 µM
TGI [50]: 17.1 µM
GI50 [51]: 3.98 µM
TGI [51]: 9.1 µM
GI50 [52]: 1.45 µM
TGI [52]: 5.33 µM
GI50 [53]: 3.64 µM
TGI [53]: 10.3 µM
GI50 [54]: 4.85 µM
TGI [54]: 12 µM
GI50 [55]: 5.53 µM
TGI [55]: 22.5 µM
GI50 [56]: 5.76 µM
TGI [56]: 16.1 µM
GI50 [57]: 3.17 µM
TGI [57]: 7.36 µM
